Literature values as cited in patent publication US9988396B2, “Oxaziridine compound and production method thereof” (SEED RESEARCH INSTITUTE CO., LTD., priority 2016, dated 2018).

How the values were obtained:
[1] = tested on: PANC-1 pancreas cancer cell
pathogens of candidiasis = conditions: statement in background, from patent document 1 (WO2015/030197)

Question: With `CC=C(Cc1ccccc1)C12CC(O)CCN1O2` (stereo not drawn) [Kakeromycin] as the compound, how does the cytotoxicity [1] read?
Answer: shows cytotoxicity

Question: And the “antifungal activity / antibacterial activity against pathogens of candidiasis” value (pathogens of candidiasis)?
Answer: strong antibacterial activity

Question: What about the cytotoxicity (HepG2 liver cancer cell) of the same compound?
Answer: shows cytotoxicity
